Results as given in patent publication US9944646B2, “Bicyclic azaheterocyclobenzylamines as PI3K inhibitors” (Incyte Corporation, priority 2012, dated 2018).
Structures can show the parent of a compound that is named as a salt.

Experiments:
SUDHL-6 cells = experiment: SUDHL-6 Cell Proliferation Assay (Example B3); format: cell-based; settings: 3 days, Cell Titer-GLO
Protocol: Example B3: SUDHL-6 Cell Proliferation Assay
SUDHL-6 cell line (diffuse large B cell lymphoma) was purchased from ATCC (Manassas, Va.) and maintained in the culture medium recommended (RPMI and 10% FBS). To measure the anti-proliferation activity of the compounds through ATP quantitation, the SUDHL-6 cells was plated with the culture medium (5000 cells/well/per 200 μl) into 96-well polystyrene clear black tissue culture plate (Greiner-bio-one through VWR, NJ) in the presence or absence of a concentration range of test compounds. After 3 days, Cell Titer-GLO Luminescent (Promega, Madison, Wis.) cell culture agent was added to each well for 10 minutes at room temperature to stabilize the luminescent signal. This determines the number of viable cells in culture based on quantitation of the ATP present, which signals the presence of metabolically active cells. Luminescence was measured with the TopCount 384 (Packard Bioscience through Perkin Elmer, Boston, Mass.). […] IC50 data for the Examples is presented in Table 4 determined by the assay of Example B3.

PI3Kδ = PI3Kδ (Homo sapiens (Human), UniProt O00329); experiment: PI3K Enzyme Assay (Example A2), [γ-33P]ATP filter plate; format: biochemical
Sequence of PI3Kδ (O00329 whole entry): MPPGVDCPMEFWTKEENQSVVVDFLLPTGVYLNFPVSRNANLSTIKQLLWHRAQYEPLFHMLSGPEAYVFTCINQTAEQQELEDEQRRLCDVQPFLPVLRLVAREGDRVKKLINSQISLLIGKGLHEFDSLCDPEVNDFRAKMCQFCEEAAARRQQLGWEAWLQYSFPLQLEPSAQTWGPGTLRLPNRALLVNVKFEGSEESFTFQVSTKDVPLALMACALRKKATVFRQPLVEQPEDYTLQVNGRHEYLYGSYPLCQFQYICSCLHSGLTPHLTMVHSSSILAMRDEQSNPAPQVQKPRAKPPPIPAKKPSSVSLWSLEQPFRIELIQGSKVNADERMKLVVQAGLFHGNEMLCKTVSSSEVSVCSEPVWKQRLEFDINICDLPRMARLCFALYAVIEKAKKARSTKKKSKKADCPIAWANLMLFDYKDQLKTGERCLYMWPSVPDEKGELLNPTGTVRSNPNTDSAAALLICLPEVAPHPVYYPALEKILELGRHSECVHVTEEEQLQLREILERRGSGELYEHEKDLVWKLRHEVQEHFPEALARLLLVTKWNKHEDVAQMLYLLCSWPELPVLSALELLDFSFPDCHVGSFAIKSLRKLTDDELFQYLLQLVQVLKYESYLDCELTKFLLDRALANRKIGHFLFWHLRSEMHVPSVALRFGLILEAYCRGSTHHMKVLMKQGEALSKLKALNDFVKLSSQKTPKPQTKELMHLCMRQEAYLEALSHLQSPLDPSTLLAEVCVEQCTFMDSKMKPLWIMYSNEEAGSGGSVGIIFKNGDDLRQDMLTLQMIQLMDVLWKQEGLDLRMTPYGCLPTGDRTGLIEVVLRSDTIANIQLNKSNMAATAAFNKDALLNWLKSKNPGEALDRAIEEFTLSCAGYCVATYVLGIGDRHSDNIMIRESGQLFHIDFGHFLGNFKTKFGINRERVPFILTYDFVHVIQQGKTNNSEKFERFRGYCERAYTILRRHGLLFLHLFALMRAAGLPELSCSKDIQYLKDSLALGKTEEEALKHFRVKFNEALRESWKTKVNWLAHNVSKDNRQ
Sequence of PI3Kδ (P27986 whole entry partner): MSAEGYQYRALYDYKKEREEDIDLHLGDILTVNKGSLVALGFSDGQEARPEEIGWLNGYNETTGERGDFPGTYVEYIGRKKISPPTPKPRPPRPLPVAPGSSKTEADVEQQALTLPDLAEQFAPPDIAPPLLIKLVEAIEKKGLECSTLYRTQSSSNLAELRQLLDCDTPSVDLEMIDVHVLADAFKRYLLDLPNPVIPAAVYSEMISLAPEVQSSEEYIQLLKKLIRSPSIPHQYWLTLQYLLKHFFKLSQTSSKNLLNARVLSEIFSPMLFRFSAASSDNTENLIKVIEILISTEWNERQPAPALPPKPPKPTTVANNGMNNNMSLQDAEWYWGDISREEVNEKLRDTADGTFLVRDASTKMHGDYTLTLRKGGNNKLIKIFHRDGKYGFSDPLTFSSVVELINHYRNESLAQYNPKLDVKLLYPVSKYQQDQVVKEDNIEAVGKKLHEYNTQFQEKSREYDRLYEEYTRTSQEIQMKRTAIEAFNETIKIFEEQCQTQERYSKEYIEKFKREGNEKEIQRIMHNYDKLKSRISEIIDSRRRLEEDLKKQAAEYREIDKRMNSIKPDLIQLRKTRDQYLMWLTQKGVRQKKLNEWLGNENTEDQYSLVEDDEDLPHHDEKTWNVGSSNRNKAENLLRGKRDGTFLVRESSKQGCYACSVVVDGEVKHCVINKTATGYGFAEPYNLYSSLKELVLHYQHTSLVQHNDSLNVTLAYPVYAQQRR
Procedure, shortened: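 Recombinant PI3Kδ at 2.9 nM with 50 µM PIP2 in MOPS pH 6.7, MgCl2, DTT, CHAPS, 0.5% DMSO; started with 1000 μM ATP including [γ-33P]ATP, 180 min at room temperature. Phosphorylated product captured on PVDF filter plates and scintillation-counted; IC50 from percent-control activity vs log concentration.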

PI3Kδ (p110δ/p85α) = PI3Kδ (p110δ/p85α) (Homo sapiens (Human), UniProt O00329); experiment: PI3Kδ Scintillation Proximity Assay (Example A3); format: biochemical
Sequence of PI3Kδ (p110δ/p85α) (O00329 whole entry): as the sequence (O00329 whole entry) above
Sequence of PI3Kδ (p110δ/p85α) (P27986 whole entry partner): as the sequence (P27986 whole entry partner) above
Text: Example A3: PI3Kδ Scintillation Proximity Assay
[γ-^33P]ATP (10 mCi/mL) was purchased from Perkin-Elmer (Waltham, Mass.). Lipid kinase substrate, D-myo-Phosphatidylinositol 4,5-bisphosphate (PtdIns(4,5)P2)D (+)-sn-1,2-di-O-octanoylglyceryl, 3-O-phospho linked (PIP2), CAS 204858-53-7, was purchased from Echelon Biosciences (Salt Lake City, Utah). PI3Kδ (p110δ/p85α) was purchased from Millipore (Bedford, Mass.). ATP, MgCl2, DTT, EDTA, MOPS and CHAPS were purchased from Sigma-Aldrich (St. Louis, Mo.). Wheat Germ Agglutinin (WGA) YSi SPA Scintillation Beads was purchased from GE healthcare life sciences (Piscataway, N.J.).
The kinase reaction was conducted in polystyrene 384-well matrix white plate from Thermo Fisher Scientific in a final volume of 25 μL. Inhibitors were first diluted serially in DMSO and added to the plate wells before the addition of other reaction components. The final concentration of DMSO in the assay was 0.5%. The PI3K assays were carried out at room temperature in 20 mM MOPS, pH 6.7, 10 mM MgCl2, 5 mM DTT and CHAPS 0.03%. Reactions were initiated by the addition of ATP, the final reaction mixture consisted of 20 µM PIP2, 20 µM ATP, 0.2 μCi [γ-^33P]ATP, 4 nM PI3Kδ. Reactions were incubated for 210 min and terminated by the addition of 40 μL SPA beads suspended in quench buffer: 150 mM potassium phosphate pH 8.0, 20% glycerol. 25 mM EDTA, 400 µM ATP. The final concentration of SPA beads was 1.0 mg/mL. After the plate sealing, plates were shaken overnight at room temperature and centrifuged at 1800 rpm for 10 minutes, the radioactivity of the product was determined by scintillation counting on Topcount (Perkin-Elmer). IC50 determination was performed by fitting the curve of percent control activity versus the log of the inhibitor concentration using the GraphPad Prism 3.0 software. […] IC50 data for Examples 1-25 is presented in Table 3 for PI3Kδ as determined by the assay of Example A2 or A3 as indicated

| SMILES | IC50 (SUDHL-6 cells) [nM] | IC50 (PI3Kδ) [nM] | IC50 (SUDHL-6 cells; Homo sapiens, SU-DHL-6, 72 h) [nM] | IC50 (PI3Kδ (p110δ/p85α)) [nM] |
| --- | --- | --- | --- | --- |
| Cc1nn(C(C)c2cc(Cl)c(C#N)c3c2OC(C)CN(CCO)C3)c2ncnc(N)c12 (single isomer, unassigned) [Example 63, 9-[1-(4-Amino-3-methyl-1H-pyrazolo[3,4-d]pyrimidin-1-yl)ethyl]-7-chloro-4-(2-hydroxyethyl)-2-methyl-2,3,4,5-tetrahydro-1,4-benzoxazepine-6-carbonitrile] | ≤ 500 | ≤ 100 | – | – |
| CC(=O)N1CC(N2Cc3c(C#N)c(Cl)cc(C(C)n4nc(C)c5c(N)ncnc54)c3OC(C)C2)C1 (single isomer, unassigned) [Example 49, 4-(1-Acetylazetidin-3-yl)-9-[1-(4-amino-3-methyl-1H-pyrazolo[3,4-d]pyrimidin-1-yl)ethyl]-7-chloro-2-methyl-2,3,4,5-tetrahydro-1,4-benzoxazepine-6-carbonitrile] | ≤ 500 | ≤ 100 | – | – |
| Cc1nn(C(C)c2cc(Cl)c(C#N)c3c2OC(C)CN(CCO)C3)c2ncnc(N)c12 (single isomer, unassigned) [Example 62, 9-[1-(4-Amino-3-methyl-1H-pyrazolo[3,4-d]pyrimidin-1-yl)ethyl]-7-chloro-4-(2-hydroxyethyl)-2-methyl-2,3,4,5-tetrahydro-1,4-benzoxazepine-6-carbonitrile] | – | ≤ 100 | ≤ 500 | – |
| Cc1c(Cl)cc(C(C)n2nc(C)c3c(N)ncnc32)c2c1CN(c1cnccn1)CCO2 (centres unmarked) [Example 24, 1-[1-(7-Chloro-6-methyl-4-pyrazin-2-yl-2,3,4,5-tetrahydro-1,4-benzoxazepin-9-yl)ethyl]-3-methyl-1H-pyrazolo[3,4-d]pyrimidin-4-amine bis(trifluoroacetate)] | – | – | – | ≤ 100 |
| Cc1c(Cl)cc(C(C)n2nc(C)c3c(N)ncnc32)c2c1CN(C(=O)c1ccccc1)CCO2 (centres unmarked) [Example 16, 1-[1-(4-Benzoyl-7-chloro-6-methyl-2,3,4,5-tetrahydro-1,4-benzoxazepin-9-yl)ethyl]-3-methyl-1H-pyrazolo[3,4-d]pyrimidin-4-amine trifluoroacetate] | – | – | – | ≤ 100 |
| Cc1c(Cl)cc(C(C)n2nc(C)c3c(N)ncnc32)c2c1CN(S(=O)(=O)C1CC1)CCO2 (centres unmarked) [Example 18, 1-{1-[7-Chloro-4-(cyclopropylsulfonyl)-6-methyl-2,3,4,5-tetrahydro-1,4-benzoxazepin-9-yl]ethyl}-3-methyl-1H-pyrazolo[3,4-d]pyrimidin-4-amine trifluoroacetate] | – | – | – | ≤ 100 |
| Cc1c(Cl)cc(C(C)n2nc(C)c3c(N)ncnc32)c2c1CN(C1CCCC1)CCO2 (centres unmarked) [Example 6, 1-[1-(7-Chloro-4-cyclopentyl-6-methyl-2,3,4,5-tetrahydro-1,4-benzoxazepin-9-yl)ethyl]-3-methyl-1H-pyrazolo[3,4-d]pyrimidin-4-amine bis(trifluoroacetate)] | – | – | – | ≤ 100 |
| Cc1c(Cl)cc(C(C)n2nc(C)c3c(N)ncnc32)c2c1CN(c1ncc(C#N)s1)CCO2 (centres unmarked) [Example 23, 2-[9-[1-(4-Amino-3-methyl-1H-pyrazolo[3,4-d]pyrimidin-1-yl)ethyl]-7-chloro-6-methyl-2,3-dihydro-1,4-benzoxazepin-4(5H)-yl]-1,3-thiazole-5-carbonitrile trifluoroacetate] | – | – | – | ≤ 100 |

The remaining lines, values ahead:

| IC50 (SUDHL-6 cells) [nM] | IC50 (PI3Kδ) [nM] | IC50 (SUDHL-6 cells; Homo sapiens, SU-DHL-6, 72 h) [nM] | IC50 (PI3Kδ (p110δ/p85α)) [nM] | SMILES |
| --- | --- | --- | --- | --- |
| ≤ 500 | ≤ 100 | – | – | CC(=O)N1CC(N2Cc3c(F)c(Cl)cc(C(C)n4nc(C)c5c(N)ncnc54)c3OC(C)C2)C1 (single isomer, unassigned) [Example 30, 1-{1-[4-(1-Acetylazetidin-3-yl)-7-chloro-6-fluoro-2-methyl-2,3,4,5-tetrahydro-1,4-benzoxazepin-9-yl]ethyl}-3-methyl-1H-pyrazolo[3,4-d]pyrimidin-4-amine] |
| ≤ 500 | ≤ 100 | – | – | CC(=O)N1CC(N2Cc3c(F)c(Cl)cc(C(C)n4nc(C)c5c(N)ncnc54)c3OC(C)C2)C1 (single isomer, unassigned) [Example 32, 1-{1-[4-(1-Acetylazetidin-3-yl)-7-chloro-6-fluoro-2-methyl-2,3,4,5-tetrahydro-1,4-benzoxazepin-9-yl]ethyl}-3-methyl-1H-pyrazolo[3,4-d]pyrimidin-4-amine] |
| – | ≤ 100 | ≤ 500 | – | Cc1nn(C(C)c2cc(Cl)c(F)c3c2OC(C)CN(S(C)(=O)=O)C3)c2ncnc(N)c12 (single isomer, unassigned) [Example 37, 1-{1-[7-Chloro-6-fluoro-2-methyl-4-(methylsulfonyl)-2,3,4,5-tetrahydro-1,4-benzoxazepin-9-yl]ethyl}-3-methyl-1H-pyrazolo[3,4-d]pyrimidin-4-amine] |
| ≤ 500 | ≤ 100 | – | – | CC(=O)N1CC(N2Cc3c(F)c(Cl)cc(C(C)n4nc(C)c5c(N)ncnc54)c3OC(C)C2)C1 (single isomer, unassigned) [Example 29, 1-{1-[4-(1-Acetylazetidin-3-yl)-7-chloro-6-fluoro-2-methyl-2,3,4,5-tetrahydro-1,4-benzoxazepin-9-yl]ethyl}-3-methyl-1H-pyrazolo[3,4-d]pyrimidin-4-amine] |
| ≤ 500 | ≤ 100 | – | – | Cc1nn(C(C)c2cc(Cl)c(F)c3c2OC(C)CN(S(C)(=O)=O)C3)c2ncnc(N)c12 (single isomer, unassigned) [Example 40, 1-{1-[7-Chloro-6-fluoro-2-methyl-4-(methylsulfonyl)-2,3,4,5-tetrahydro-1,4-benzoxazepin-9-yl]ethyl}-3-methyl-1H-pyrazolo[3,4-d]pyrimidin-4-amine] |
| – | ≤ 100 | ≤ 500 | – | CC(=O)N1CC(N2Cc3c(F)c(Cl)cc(C(C)n4nc(C)c5c(N)ncnc54)c3OC(C)C2)C1 (single isomer, unassigned) [Example 28, 1-{1-[4-(1-Acetylazetidin-3-yl)-7-chloro-6-fluoro-2-methyl-2,3,4,5-tetrahydro-1,4-benzoxazepin-9-yl]ethyl}-3-methyl-1H-pyrazolo[3,4-d]pyrimidin-4-amine] |
